Laboratory results as given in ChEMBL document CHEMBL1287680, “C-11 diamino cryptolepine derivatives NSC748392, NSC748393, and NSC748394: anticancer profile and G-quadruplex stabilization” (Bioorg Med Chem Lett, 2010).

How the values were obtained:
[1] = cells; conditions: Homo sapiens, Hs-578T
Description: Anticancer activity against human Hs 578T cells

[2] = system: HT-29; assay: cells; conditions: Homo sapiens
Description: Anticancer activity against human HT-29 cells

[3] = system: NCI-H322M; assay: cells; conditions: Homo sapiens
Description: Anticancer activity against human NCI-H322M cells

[4] = system: BT-549; assay: cells; conditions: Homo sapiens
Description: Anticancer activity against human BT549 cells

[5] = system: UACC-62; assay: cells; conditions: Homo sapiens
Description: Anticancer activity against human UACC62 cells

[6] = system: A498; assay: cells; conditions: Homo sapiens
Description: Anticancer activity against human A498 cells

[7] = system: OVCAR-5; assay: cells; conditions: Homo sapiens
Description: Anticancer activity against human OVCAR5 cells

[8] = system: Nucleic Acid; conditions: Homo sapiens
Description: Binding affinity to human G-quadruplex DNA assessed as change in melting temperature by FRET-melting assay

[9] = in vivo; conditions: mouse, cancer cell lines
Description: Toxicity in cancer cells containing hollow fiber implanted mouse

[10] = system: A549; assay: cells; conditions: Homo sapiens
Description: Anticancer activity against human A549 cells

[11] = system: NCI-H226; assay: cells; conditions: Homo sapiens
Description: Anticancer activity against human NCI-H226 cells

[12] = system: SF-295; assay: cells; conditions: Homo sapiens
Description: Anticancer activity against human SF295 cells

[13] = system: SNB-19; assay: cells; conditions: Homo sapiens
Description: Anticancer activity against human SNB19 cells

[14] = system: EKVX; assay: cells; conditions: Homo sapiens
Description: Anticancer activity against human EKVX cells

[15] = system: KM12; assay: cells; conditions: Homo sapiens
Description: Anticancer activity against human KM12 cells

[16] = system: OVCAR-8; assay: cells; conditions: Homo sapiens, OVCAR-8, read-out: pGI50 (converted)
Description: Anticancer activity against human OVCAR8 cells

[17] = system: HCT-15; assay: cells; conditions: Homo sapiens
Description: Anticancer activity against human HCT15 cells

[18] = system: RXF 393; assay: cells; conditions: Homo sapiens
Description: Anticancer activity against human RXF393 cells

[19] = system: LOX IMVI; assay: cells; conditions: Homo sapiens
Description: Anticancer activity against human LOXIMVI cells

[20] = system: 786-0; assay: cells; conditions: Homo sapiens
Description: Anticancer activity against human 786-0 cells

[21] = system: NCI-H522; assay: cells; conditions: Homo sapiens
Description: Anticancer activity against human NCI-H522 cells

[22] = system: IGROV-1; assay: cells; conditions: Homo sapiens
Description: Anticancer activity against human IGROV1 cells

[23] = system: HOP-62; assay: cells; conditions: Homo sapiens
Description: Anticancer activity against human HOP62 cells

[24] = system: MDA-MB-231; assay: cells; conditions: Homo sapiens
Description: Anticancer activity against human MDA-MB-231 cells

[25] = system: T47D; assay: cells; conditions: Homo sapiens
Description: Anticancer activity against human T47D cells

[26] = system: MDA-MB-435; assay: cells; conditions: Homo sapiens
Description: Anticancer activity against human MDA-MB-435 cells

[27] = system: UACC-257; assay: cells; conditions: Homo sapiens
Description: Anticancer activity against human UACC257 cells

[28] = system: HOP-92; assay: cells; conditions: Homo sapiens
Description: Anticancer activity against human HOP92 cells

[29] = system: TK-10; assay: cells; conditions: Homo sapiens
Description: Anticancer activity against human TK10 cells

[30] = system: NCI-H23; assay: cells; conditions: Homo sapiens
Description: Anticancer activity against human NCI-H23 cells

[31] = system: SNB-75; assay: cells; conditions: Homo sapiens
Description: Anticancer activity against human SNB75 cells

[32] = system: HL-60(TB); assay: cells; conditions: Homo sapiens
Description: Anticancer activity against human HL-60(TB) cells

[33] = system: K562; assay: cells; conditions: Homo sapiens
Description: Anticancer activity against human K562 cells

[34] = system: Vero; assay: cells; conditions: Chlorocebus sabaeus, 48 h
Description: Cytotoxicity against african green monkey Vero cells after 48 hrs by MTT assay

`C[n+]1c2ccccc2c(Nc2ccc(N3CCCCC3)cc2)c2[nH]c3ccccc3c21.[Cl-]` showed a GI50 ([1]; read-out: pGI50 (converted)) of 275 nM, a TGI ([1]; read-out: pTGI) of 1000 nM and a GI50 ([2]; HT-29, read-out: pGI50 (converted)) of 178 nM. For the same compound, the CC50 ([2]; HT-29, read-out: pLC50 (converted)) was 2140 nM, the TGI ([2]; HT-29, read-out: pTGI) was 550 nM and the GI50 ([3]; read-out: pGI50 (converted)) was 1020 nM. The CC50 ([3]; read-out: pLC50 (converted)) was 5500 nM, the TGI ([3]; read-out: pTGI) was 2400 nM and the GI50 ([4]; BT-549, read-out: pGI50 (converted)) was 1290 nM. The CC50 ([4]; BT-549, read-out: pLC50 (converted)) was 5250 nM, the TGI ([4]; BT-549, read-out: pTGI) was 2630 nM and the GI50 ([5]; UACC-62, read-out: pGI50 (converted)) was 427 nM. The TGI ([5]; UACC-62, read-out: pTGI) was 1910 nM, the GI50 ([6]; A498, read-out: pGI50 (converted)) was 178 nM and the CC50 ([6]; A498, read-out: pLC50 (converted)) was 2140 nM. It also gave a TGI ([6]; A498, read-out: pTGI) of 537 nM, a GI50 ([7]; OVCAR-5, read-out: pGI50 (converted)) of 1070 nM and a CC50 ([7]; OVCAR-5, read-out: pLC50 (converted)) of 5500 nM. For the same compound, the TGI ([7]; OVCAR-5, read-out: pTGI) was 2400 nM, the ΔTm [8] was 4.2 °C and the MTD [9] was 160 mg/kg. The GI50 ([10]; A549, read-out: pGI50 (converted)) was 162 nM, the CC50 ([10]; A549, read-out: pLC50 (converted)) was > 100000 nM and the TGI ([10]; A549, read-out: pTGI) was 589 nM. For the same compound, the GI50 ([11]; NCI-H226, read-out: pGI50 (converted)) was 269 nM, the TGI ([11]; NCI-H226, read-out: pTGI) was 1860 nM and the GI50 ([12]; SF-295, read-out: pGI50 (converted)) was 398 nM. The CC50 ([12]; SF-295, read-out: pLC50 (converted)) was 4370 nM, the TGI ([12]; SF-295, read-out: pTGI) was 1580 nM and the GI50 ([13]; SNB-19, read-out: pGI50 (converted)) was 427 nM. It also gave a CC50 ([13]; SNB-19, read-out: pLC50 (converted)) of 4370 nM, a TGI ([13]; SNB-19, read-out: pTGI) of 1780 nM and a GI50 ([14]; read-out: pGI50 (converted)) of 427 nM. For the same compound, the CC50 ([14]; read-out: pLC50 (converted)) was 4680 nM, the TGI ([14]; read-out: pTGI) was 1860 nM and the GI50 ([15]; KM12, read-out: pGI50 (converted)) was 372 nM. For the same compound, the CC50 ([15]; KM12, read-out: pLC50 (converted)) was 5130 nM, the TGI ([15]; KM12, read-out: pTGI) was 1480 nM and the GI50 [16] was 316 nM. It also gave a GI50 ([17]; HCT-15, read-out: pGI50 (converted)) of 170 nM, a CC50 ([17]; HCT-15, read-out: pLC50 (converted)) of 912 nM and a TGI ([17]; HCT-15, read-out: pTGI) of 398 nM. The GI50 ([18]; RXF 393, read-out: pGI50 (converted)) was 174 nM, the CC50 ([18]; RXF 393, read-out: pLC50 (converted)) was 692 nM and the TGI ([18]; RXF 393, read-out: pTGI) was 347 nM. It also gave a GI50 ([19]; read-out: pGI50 (converted)) of 148 nM, a CC50 ([19]; read-out: pLC50 (converted)) of 1450 nM and a TGI ([19]; read-out: pTGI) of 398 nM. The GI50 ([20]; 786-0, read-out: pGI50 (converted)) was 457 nM, the CC50 ([20]; 786-0, read-out: pLC50 (converted)) was 5500 nM and the TGI ([20]; 786-0, read-out: pTGI) was 1700 nM. It also gave a GI50 ([21]; NCI-H522, read-out: pGI50 (converted)) of 741 nM, a TGI ([21]; NCI-H522, read-out: pTGI) of 2140 nM and a GI50 ([22]; IGROV-1, read-out: pGI50 (converted)) of 229 nM. It also gave a CC50 ([22]; IGROV-1, read-out: pLC50 (converted)) of 3470 nM, a TGI ([22]; IGROV-1, read-out: pTGI) of 1170 nM and a GI50 ([23]; HOP-62, read-out: pGI50 (converted)) of 741 nM. For the same compound, the CC50 ([23]; HOP-62, read-out: pLC50 (converted)) was 5250 nM, the TGI ([23]; HOP-62, read-out: pTGI) was 2190 nM and the GI50 ([24]; MDA-MB-231, read-out: pGI50 (converted)) was 490 nM. It also gave a CC50 ([24]; MDA-MB-231, read-out: pLC50 (converted)) of 6030 nM, a TGI ([24]; MDA-MB-231, read-out: pTGI) of 2090 nM and a GI50 ([25]; read-out: pGI50 (converted)) of 214 nM. For the same compound, the TGI ([25]; read-out: pTGI) was 603 nM, the GI50 ([26]; MDA-MB-435, read-out: pGI50 (converted)) was 447 nM and the CC50 ([26]; MDA-MB-435, read-out: pLC50 (converted)) was 4900 nM. The TGI ([26]; MDA-MB-435, read-out: pTGI) was 1660 nM, the GI50 ([27]; UACC-257, read-out: pGI50 (converted)) was 1230 nM and the TGI ([27]; UACC-257, read-out: pTGI) was 2690 nM. For the same compound, the GI50 ([28]; HOP-92, read-out: pGI50 (converted)) was 263 nM, the CC50 ([28]; HOP-92, read-out: pLC50 (converted)) was 5130 nM and the TGI ([28]; HOP-92, read-out: pTGI) was 1200 nM. It also gave a GI50 ([29]; TK-10, read-out: pGI50 (converted)) of 1000 nM, a CC50 ([29]; TK-10, read-out: pLC50 (converted)) of 5620 nM and a TGI ([29]; TK-10, read-out: pTGI) of 2400 nM. It also gave a GI50 ([30]; NCI-H23, read-out: pGI50 (converted)) of 398 nM, a CC50 ([30]; NCI-H23, read-out: pLC50 (converted)) of 6610 nM and a TGI ([30]; NCI-H23, read-out: pTGI) of 1700 nM. The GI50 ([31]; SNB-75, read-out: pGI50 (converted)) was 692 nM, the CC50 ([31]; SNB-75, read-out: pLC50 (converted)) was 4470 nM and the TGI ([31]; SNB-75, read-out: pTGI) was 2000 nM. The GI50 ([32]; HL-60, read-out: pGI50 (converted)) was 617 nM, the CC50 ([32]; HL-60, read-out: pLC50 (converted)) was > 100000 nM and the CC50 ([33]; K562, read-out: pLC50 (converted)) was > 100000 nM. For the same compound, the TGI ([33]; K562, read-out: pTGI) was > 100000 nM and the IC50 [34] was 4830 nM.
